From patent US20220072013A1, “Pharmaceutical Combinations for the Treatment of Cancer” (CA*TX, Inc., priority 2018, published 2022)
Entries after “also recorded” stand apart in the source; their conditions may differ.

Assays:
survivin = test: Survivin mRNA and protein expression in HT-29 cells (RT-PCR, western blot); assay type: cell-based, human; details: Sulindac 200 μM
Protocol: RNA and protein expression were measured by RT-PCR and western blot, respectively. FIGS. 3A and 3B show an ethidium bromide-stained gel and graph of quantified data for survivin and Bcl-2 mRNA expression. FIGS. 3C and 3D show a western blot and graph of quantified data for survivin and Bcl-2 protein expression.
Another mechanism attributed to Sulindac's antitumor effects is its ability to induce apoptosis and decrease cell proliferation. This mechanism appears to involve a COX-independent mechanism whereby Sulindac (and other NSAIDs) induce degradation of beta-catenin, inactivation of Tcf-4, reduced expression of an anti-apoptotic protein (survivin; FIG. 3) and increased apoptosis in human CRC cells. […] To that end, survivin and Bcl-2 expression was evaluated in HT-29 cells that were treated with Sulindac (200 μM). RNA and protein expression were measured by RT-PCR and western blot, respectively. FIGS. 3A and 3B show an ethidium bromide-stained gel and graph of quantified data for survivin and Bcl-2 mRNA expression.

HT29 CRC cells = test: Apoptosis in HT29 CRC cells; assay type: cell-based, human
[1] = test system: intestinal tumors in Apc^Min/+ mice; test: Intestinal tumor development in Apc^Min/+ mice given drug-containing diets; assay type: in vivo; details: for decrease in tumor number: analyzed at 12 weeks; for change in tumor size: started before adenoma development (age 4 to 12 weeks)
Protocol: FIG. 1 illustrates the decrease in the number of intestinal tumors in Apc^Min/+ mice given Budesonide- or Sulindac-containing diets for 8 or 4 weeks (from age 4 weeks to age 12 weeks or age 8 weeks to age 12 weeks); bars show % change in tumor number compared to untreated C57BL/6 control mice.
FIG. 2 illustrates the change in size of intestinal tumors in Apc^Min/+ mice that were administered Budesonide- or Sulindac containing diets for 8 or 4 weeks (from age 4 weeks to age 12 weeks or age 8 weeks to age 12 weeks); bars show % change in tumor size compared to untreated C57BL/6 control mice.
Budesonide, a steroidal anti-inflammatory drug active against lung cancer development, was investigated as a drug for CRC. Budesonide was evaluated using the murine model for hereditary CRC (FAP) in humans—Apc^Min/+ mice—which, like FAP patients, carry a germline Apc mutation and which spontaneously develop multiple intestinal tumors. The effects of Budesonide were compared to Sulindac as the “gold standard” for an NSAID drug known to inhibit tumor development in Apc^Min mice. The Apc^Min/+ and control mice (C57BL6) were given Budesonide- or Sulindac-containing diets starting at 4 or 8 weeks of age (corresponding, respectively, to ages before and after intestinal tumor development). At 12 weeks, mice were sacrificed and intestines analyzed for adenomas. […] Without wishing to be bound by any particular theory, it is concluded that Budesonide has strong activity against the development of multiple tumors that would otherwise be induced by a variety of Apc mutations (combinations of inherited 1st hit and acquired 2nd hits), and also regression of many tumors after they had already developed.

[2] = test system: global DNA methylation of adenomas in Apc^Min/+ mice; test: Anti-5-methylcytidine immunostaining of small intestine adenomas (global DNA methylation); assay type: in vivo
HT29 (APC mutant) cells = test: DNA methylation (epigenetic) profiling of HT29 cells; assay type: cell-based, human
Protocol: FIG. 5 illustrates that Budesonide increases DNA methylation in human CRC cells. To determine if Budesonide increases DNA methylation in human CRC cells, epigenetic profiling was done on HT29 (APC mutant) cells in response to Budesonide exposure. […] A statistically significant shift in CpG methylation occurred at 235 unique CpG sites (out of 1.9 M that were analyzed).

[3] = diet started at 4 weeks of age, prior to establishment of intestinal adenomas
[4] = diet started at 8 weeks of age, after adenoma development

| SMILES | survivin expression (survivin) | apoptosis (HT29 CRC cells) | decrease in tumor number [1, 3] | decrease in tumor number [1, 4] | change in tumor size [1] | 5-methylcytidine immunostaining signal intensity, increase [2] | proportion of cells staining positive for 5-methylcytidine [2] | 1 MB domains across the genome showing an increase in methylation versus control (HT29 (APC mutant) cells; Budesonide exposure) | unique CpG sites with statistically significant shift in CpG methylation (HT29 (APC mutant) cells; out of 1.9 M sites analyzed) |
| --- | --- | --- | --- | --- | --- | --- | --- | --- | --- |
| CC1=C(CC(=O)O)c2cc(F)ccc2/C1=C\c1ccc([S+](C)[O-])cc1 (stereo not drawn) [Sulindac] | monotonic decrease; also recorded: attenuates expression | induces apoptosis | 90% | 90% | decreased |  |  |  |  |
| CCCC1O[C@@H]2C[C@H]3[C@@H]4CCC5=CC(=O)C=C[C@]5(C)[C@H]4[C@@H](O)C[C@]3(C)[C@]2(C(=O)CO)O1 (stereo partly drawn) [Budesonide, budesonide] |  |  | 88% | 60% | decreased | 1.9 fold | increase | 69.3% | 235 |
